Data published in ChEMBL document CHEMBL3621074, “Exploration of the linkage elements of porcupine antagonists led to potent Wnt signaling pathway inhibitors” (Bioorg Med Chem, 2015).
Calls of active or inactive are those of the source. No cut-off for these calls is given here.

Key:
[1] = target: T1, Protein-serine O-palmitoleoyltransferase porcupine (Homo sapiens, UniProt Q9H237); test: Inhibition of porcupine (unknown origin) expressed in mouse L Wnt3A cells co-cultured with TM3 cells harboring luciferase reporter gene assessed as reduction in Wnt ligand-driven LEF/TCF-dependent transcriptional activity; assay type: cell-based
T1 sequence (Q9H237 whole entry): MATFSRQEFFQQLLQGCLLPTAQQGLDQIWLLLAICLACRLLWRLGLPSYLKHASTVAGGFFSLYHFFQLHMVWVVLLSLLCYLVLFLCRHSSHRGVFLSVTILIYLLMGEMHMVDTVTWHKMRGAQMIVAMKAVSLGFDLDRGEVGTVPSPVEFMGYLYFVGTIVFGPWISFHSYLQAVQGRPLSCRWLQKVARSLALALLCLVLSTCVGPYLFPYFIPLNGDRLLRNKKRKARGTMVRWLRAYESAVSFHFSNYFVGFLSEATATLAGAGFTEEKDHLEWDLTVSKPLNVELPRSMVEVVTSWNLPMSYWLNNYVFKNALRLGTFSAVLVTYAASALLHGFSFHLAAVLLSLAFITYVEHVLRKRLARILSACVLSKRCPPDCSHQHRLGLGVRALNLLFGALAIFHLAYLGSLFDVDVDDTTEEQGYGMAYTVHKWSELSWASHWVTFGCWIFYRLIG

[2] = Chemical stability in simulated gastric fluid assessed as remaining compound level incubated for 4 hrs at 200 uM at 40 degC by HPLC method; assay type: physicochemical; conditions: read-out: Stability
[3] = Half life in human liver microsomes at 1 uM in presence of NADPH by LC-MS/MS method; assay type: ADME
CYP3A4 = CYP3A4 (Homo sapiens, UniProt P08684); test: Inhibition of CYP3A4 in human liver microsomes at 10 uM pre-incubated for 10 mins before midazolam substrate and NADPH addition by LC-MS/MS method; assay type: ADME; conditions: probe midazolam
Sequence of CYP3A4 (P08684 whole entry): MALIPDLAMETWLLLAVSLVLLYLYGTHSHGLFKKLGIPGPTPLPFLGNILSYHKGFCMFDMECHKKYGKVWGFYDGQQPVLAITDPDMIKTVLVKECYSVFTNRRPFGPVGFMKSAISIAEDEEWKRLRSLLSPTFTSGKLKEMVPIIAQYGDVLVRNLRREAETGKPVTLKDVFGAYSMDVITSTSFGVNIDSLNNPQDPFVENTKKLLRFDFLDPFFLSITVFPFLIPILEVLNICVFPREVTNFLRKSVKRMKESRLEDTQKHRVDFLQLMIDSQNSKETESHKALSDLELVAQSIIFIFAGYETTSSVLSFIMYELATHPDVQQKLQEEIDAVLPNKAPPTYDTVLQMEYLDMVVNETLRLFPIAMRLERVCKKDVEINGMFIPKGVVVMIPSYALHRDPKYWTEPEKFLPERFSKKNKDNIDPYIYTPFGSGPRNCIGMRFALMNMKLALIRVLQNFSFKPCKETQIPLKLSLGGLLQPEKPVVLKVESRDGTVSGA

[4] = Chemical stability in simulated gastric fluid assessed as remaining compound level incubated for 8 hrs at 200 uM at 40 degC by HPLC method; assay type: physicochemical; conditions: read-out: Stability
[5] = Half life in mouse liver microsomes at 1 uM in presence of NADPH by LC-MS/MS method; assay type: ADME
[6] = Stability of the compound in rat plasma assessed as drug remaining at 1 uM incubated for 30 mins by LC-MS/MS method; assay type: ADME, cell-free; conditions: read-out: Stability
[7] = Stability of the compound in rat plasma assessed as drug remaining at 1 uM incubated for 8 hr by LC-MS/MS method; assay type: ADME, cell-free; conditions: read-out: Stability
[8] = Chemical stability in simulated gastric fluid assessed as remaining compound level incubated for 0 hrs at 200 uM at 40 degC by HPLC method; assay type: physicochemical; conditions: read-out: Stability
[9] = Intrinsic clearance in mouse liver microsomes at 1 uM incubated for 60 mins in presence of NADPH by LC-MS/MS method; assay type: ADME; conditions: read-out: CLH
CYP2D6 = CYP2D6 (Homo sapiens, UniProt P10635); test: Inhibition of CYP2D6 in human liver microsomes at 10 uM pre-incubated for 10 mins before dextromethorphan substrate and NADPH addition by LC-MS/MS method; assay type: ADME; conditions: probe dextromethorphan
Sequence of CYP2D6 (P10635 whole entry): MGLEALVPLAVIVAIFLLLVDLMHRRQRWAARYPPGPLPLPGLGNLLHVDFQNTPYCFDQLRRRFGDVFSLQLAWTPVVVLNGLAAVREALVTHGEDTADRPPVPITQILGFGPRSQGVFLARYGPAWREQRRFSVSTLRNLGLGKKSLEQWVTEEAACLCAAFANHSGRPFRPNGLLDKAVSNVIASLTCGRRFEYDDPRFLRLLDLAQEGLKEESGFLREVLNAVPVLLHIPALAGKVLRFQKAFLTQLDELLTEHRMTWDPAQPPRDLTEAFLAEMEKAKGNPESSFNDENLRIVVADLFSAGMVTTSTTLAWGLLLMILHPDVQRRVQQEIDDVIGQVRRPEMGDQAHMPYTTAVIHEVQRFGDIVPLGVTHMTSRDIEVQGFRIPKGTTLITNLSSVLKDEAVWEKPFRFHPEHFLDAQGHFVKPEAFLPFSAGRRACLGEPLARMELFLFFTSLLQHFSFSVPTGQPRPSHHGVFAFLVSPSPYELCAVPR

[10] = Intrinsic clearance in human liver microsomes at 1 uM incubated for 60 mins in presence of NADPH by LC-MS/MS method; assay type: ADME; conditions: read-out: CLH
[11] = Stability of the compound in rat plasma assessed as drug remaining at 1 uM incubated for 1 hr by LC-MS/MS method; assay type: ADME, cell-free; conditions: read-out: Stability
[12] = Effect on total intracellular Wnt3a levels in HEK293T cells transfected with pLinbin- Wnt3A plasmid at 0.1 uM incubated for 48 hrs by Western blotting method; assay type: ADME, cell-based; conditions: human, hek-293t
[13] = target: T2, Protein-serine O-palmitoleoyltransferase porcupine (Homo sapiens) (UniProt Q9H237); test: Inhibition of porcupine (unknown origin) expressed in HEK293T cells transfected with pLinbin- Wnt3A plasmid assessed as inhibition of Wnt3A secretion at 0.1 uM incubated for 48 hrs by Western blotting method; assay type: cell-based; conditions: HEK-293T
T2 sequence (whole entry): T1 sequence (Q9H237 whole entry)

[14] = target: T2, Protein-serine O-palmitoleoyltransferase porcupine (Homo sapiens); test: Potency index, ratio of IC50 for LGK974 to IC50 for test compound for inhibition of porcupine (unknown origin) expressed in mouse L Wnt3A cells co-cultured with HEK293 STF cells by STF reporter gene based paracrine cellular reporter gene assay; assay type: cell-based

Structure (SMILES): Cc1cc(-c2ccc(OC(=O)Nc3ccc(-c4cccnc4)cc3)cc2)ccn1
- IC50 [1]: 0.0022 µM

Structure (SMILES): Cc1cc(-c2cccc(NCC(=O)Nc3ccc(-c4cnccn4)cn3)c2)ccn1
- IC50 [1]: 0.164 µM

Structure (SMILES): COc1ccc2cc(OCC(=O)Nc3ccc(-c4cnccn4)cn3)ccc2c1
- IC50 [1]: > 1 µM

Structure (SMILES): Nc1noc2ccc(OCC(=O)Nc3ccc(-c4cnccn4)cn3)cc12
- IC50 [1]: > 1 µM

Structure (SMILES): CC(=O)N1CCc2ccc(OCC(=O)Nc3ccc(-c4cnccn4)cn3)cc2C1
- IC50 [1]: 0.024 µM

Structure (SMILES): Cc1cc(-c2ccc(SCC(=O)Nc3ccc(-c4cnccn4)cn3)cc2)ccn1
- remaining at 4 h, 200 µM [2]: 89%
- half-life at 1 µM [3]: 6.8 min
- inhibition at 10 µM (CYP3A4): 60%
- remaining at 8 h, 200 µM [4]: 83%
- half-life at 1 µM [5]: 3.4 min
- remaining at 0.5 h, 1 µM [6]: 93%
- remaining at 8 h, 1 µM [7]: 83%
- remaining at 0 h, 200 µM [8]: 98%
- CLint scaled at 1 µM [9]: 107 L/h/kg
- IC50 [1]: 0.00053 µM
- inhibition at 10 µM (CYP2D6): 45%
- CLint scaled at 1 µM [10]: 15.8 L/h/kg
- remaining at 1 h, 1 µM [11]: 91%

Structure (SMILES): O=C(CNc1ccc2[nH]ncc2c1)Nc1ccc(-c2cnccn2)cn1
- IC50 [1]: > 1 µM

Structure (SMILES): Cc1cc(-c2ccc(N(C)CC(=O)Nc3ccc(-c4cnccn4)cn3)cc2)ccn1
- IC50 [1]: 0.00067 µM

Structure (SMILES): CC(=O)N1CCN(c2ccc(OCC(=O)Nc3ccc(-c4cnccn4)cn3)cc2)CC1
- IC50 [1]: 0.483 µM

Structure (SMILES): O=C(COc1ccc2ccncc2c1)Nc1ccc(-c2cnccn2)cn1
- IC50 [1]: 0.03 µM

Structure (SMILES): Cc1cc(-c2ccc(OCC(=O)Nc3ccc(-c4cnccn4)cn3)cc2)ccn1
- remaining at 4 h, 200 µM [2]: 81%
- half-life at 1 µM [3]: 13 min
- inhibition at 10 µM (CYP3A4): 47%
- Activity [12]: Non-toxic
- remaining at 8 h, 200 µM [4]: 67%
- half-life at 1 µM [5]: 4.3 min
- remaining at 0.5 h, 1 µM [6]: 97%
- remaining at 8 h, 1 µM [7]: 84%
- inhibition [13]: Active
- remaining at 0 h, 200 µM [8]: 96%
- CLint scaled at 1 µM [9]: 85.8 L/h/kg
- IC50 [1]: 0.00023 µM
- inhibition at 10 µM (CYP2D6): 19%
- CLint scaled at 1 µM [10]: 8.1 L/h/kg
- remaining at 1 h, 1 µM [11]: 90%

Structure (SMILES): O=C(COc1ccc2[nH]ncc2c1)Nc1ccc(-c2cnccn2)cn1
- IC50 [1]: > 1 µM

Structure (SMILES): Cc1cc(-c2cccc(SCC(=O)Nc3ccc(-c4cnccn4)cn3)c2)ccn1
- IC50 [1]: 0.04 µM

Structure (SMILES): Cc1cc(-c2ccc(CCC(=O)Nc3ccc(-c4cnccn4)cn3)cc2)ccn1
- remaining at 4 h, 200 µM [2]: 97%
- half-life at 1 µM [3]: 21 min
- inhibition at 10 µM (CYP3A4): 45%
- remaining at 8 h, 200 µM [4]: 93%
- half-life at 1 µM [5]: 4.8 min
- remaining at 0.5 h, 1 µM [6]: 98%
- remaining at 8 h, 1 µM [7]: 90%
- remaining at 0 h, 200 µM [8]: 100%
- CLint scaled at 1 µM [9]: 75.6 L/h/kg
- IC50 [1]: 0.00019 µM
- inhibition at 10 µM (CYP2D6): 47%
- CLint scaled at 1 µM [10]: 5.04 L/h/kg
- remaining at 1 h, 1 µM [11]: 94%

Structure (SMILES): N#Cc1ccc2cc(OCC(=O)Nc3ccc(-c4cnccn4)cn3)ccc2c1
- IC50 [1]: 0.0027 µM

Structure (SMILES): N#Cc1ccc(OCC(=O)Nc2ccc(-c3cnccn3)cn2)cc1
- IC50 [1]: 0.485 µM

Structure (SMILES): Cc1cc(-c2ccc(OC(C)C(=O)Nc3ccc(-c4cnccn4)cn3)cc2)ccn1 (stereo not given)
- remaining at 4 h, 200 µM [2]: 85%
- half-life at 1 µM [3]: 41 min
- inhibition at 10 µM (CYP3A4): 67%
- Activity [12]: Non-toxic
- remaining at 8 h, 200 µM [4]: 71%
- half-life at 1 µM [5]: 19 min
- remaining at 0.5 h, 1 µM [6]: 100%
- remaining at 8 h, 1 µM [7]: 100%
- inhibition [13]: Active
- remaining at 0 h, 200 µM [8]: 97%
- CLint scaled at 1 µM [9]: 19.3 L/h/kg
- IC50 [1]: 0.00011 µM
- inhibition at 10 µM (CYP2D6): 53%
- CLint scaled at 1 µM [10]: 2.58 L/h/kg
- remaining at 1 h, 1 µM [11]: 100%
- Ratio IC50 [14]: 5

Structure (SMILES): Cn1ncc2cc(OCC(=O)Nc3ccc(-c4cnccn4)cn3)ccc21
- IC50 [1]: > 1 µM

Structure (SMILES): O=C(COc1ccc2ccccc2c1)Nc1ccc(-c2cnccn2)cn1
- IC50 [1]: > 1 µM

Structure (SMILES): Cc1cc(-c2ccc(NCC(=O)Nc3ccc(-c4cnccn4)cn3)cc2)ccn1
- remaining at 4 h, 200 µM [2]: 88%
- half-life at 1 µM [3]: 39 min
- inhibition at 10 µM (CYP3A4): 50%
- Activity [12]: Non-toxic
- remaining at 8 h, 200 µM [4]: 85%
- half-life at 1 µM [5]: 14 min
- remaining at 0.5 h, 1 µM [6]: 100%
- remaining at 8 h, 1 µM [7]: 98%
- inhibition [13]: Active
- remaining at 0 h, 200 µM [8]: 95%
- CLint scaled at 1 µM [9]: 26.4 L/h/kg
- IC50 [1]: 0.00096 µM
- inhibition at 10 µM (CYP2D6): 53%
- CLint scaled at 1 µM [10]: 2.7 L/h/kg
- remaining at 1 h, 1 µM [11]: 100%

Structure (SMILES): Cn1ncc2cc(NCC(=O)Nc3ccc(-c4cnccn4)cn3)ccc21
- IC50 [1]: > 1 µM

Structure (SMILES): Cc1cc(-c2ccc(OC(=O)Nc3ccc(-c4ccccc4)cc3)cc2)ccn1
- IC50 [1]: 0.005 µM

Structure (SMILES): Cc1cc(-c2cccc(OCC(=O)Nc3ccc(-c4cnccn4)cn3)c2)ccn1
- IC50 [1]: 0.188 µM
